{"source": "patent US8969055B2", "about": "(priority 2009, dated 2015)", "molecules": {"B1": {"name": "enzyme expressed from the sadB gene: butanol dehydrogenase from Achromobacter xylosoxidans (protein SEQ ID NO: 10) (protein)", "chain": "MKALVYHGDHKISLEDKPKPTLQKPTDVVVRVLKTTICGTDLGIYKGKNPEVADGRILGHEGVGVIEEVGESVTQFKKGDKVLISCVTSCGSCDYCKKQLYSHCRDGGWILGYMIDGVQAEYVRIPHADNSLYKIPQTIDDEIAVLLSDILPTGHEIGVQYGNVQPGDAVAIVGAGPVGMSVLLTAQFYSPSTIIVIDMDENRLQLAKELGATHTINSGTENVVEAVHRIAAEGVDVAIEAVGIPATWDICQEIVKPGAHIANVGVHGVKVDFEIQKLWIKNLTITTGLVNTNTTPMLMKVASTDKLPLKKMITHRFELAEIEHAYQVFLNGAKEKAMKIILSNAGAA", "modifications": "Achromobacter xyloxidans"}}, "key": {"4KO E. coli strain": {"test_system": "4KO E. coli strain", "conditions": "for E. coli Growth Rate (μ): 4KO E. coli, BFM + betaine, 30° C.", "method": "From a frozen vial, 25 mL of seed culture was grown in Difco LB broth, Miller medium, purchased from BD Laboratories (Becton & Dickinson and Company, Sparks, Md., 21152, USA) at 30° C., 200 RPM. […] Samples were withdrawn at defined time points to monitor biomass growth as measured by OD600. Growth rates were calculated from the biomass time profiles by fitting exponential growth rate equations."}, "[1]": {"conditions": "oleyl alcohol/BFM, 30° C.", "from_the_text": "The aqueous and organic phases in each flask were separated by decantation.\nEach data point corresponding to a specified level of electrolyte as shown in Table 3 and Table 4 was repeated twice and values for Kp reported as the average of the two flasks."}, "[2]": {"conditions": "Example 3 fermentation, oleyl alcohol", "protocol": "Filter sterilized solutions of ampicillin, thiamine hydrochloride, and glucose were added to the fermentor medium, post sterilization, to a final concentration of 100 mg/L, 5 mg/L and 20 g/L respectively. Fermentations were run using a 1 L autoclavable bioreactor, Bio Console ADI 1025 (Applikon, Inc, Holland) with a working volume of 900 mL. The temperature was maintained at 30° C. during the entire fermentation and the pH was maintained at 6.8 using ammonium hydroxide. Following inoculation of the sterile fermentation medium with seed culture (2-10 vol %), the fermentor was operated aerobically at a 30% dissolved oxygen (DO) set point with 0.3 vvm of air flow by automatic control of the agitation rate (rpm). […] Four hours post induction, fermentation conditions were switched to microaerobic conditions by decreasing the airflow to 0.13 slpm and setting the DO set point to 3-5%. […] Glucose was added as a bolus (50 wt % stock solution) to the fermentor on a need basis to keep levels of glucose between 20 g/L and 2 g/L.\nGlucose levels were monitored using HPLC and YSI as described above herein."}, "[3]": {"experiment": "Activity of enzyme expressed from sadB gene in cell-free extracts of Mach1/pTrc99a::sadB", "format": "biochemical, Achromobacter xylosoxidans", "conditions": "isobutyraldehyde as the standard", "protocol": "The sadB coding region was then cloned into the vector pTrc99a (Amann et al., Gene 69: 301-315, 1988). The pCR4Blunt::sadB was digested with EcoRI, releasing the sadB fragment, which was ligated with EcoRI-digested pTrc99a to generate pTrc99a::sadB. This plasmid was transformed into E. coli Mach 1 cells and the resulting transformant was named Mach1/pTrc99a::sadB. The activity of the enzyme expressed from the sadB gene in these cells was determined to be 3.5 mmol/min/mg protein in cell-free extracts when analyzed using isobutyraldehyde as the standard."}}, "note": "Where two headings read alike, the source gives them in different places."}
{"molecule": "O=S(=O)([O-])[O-].[Na+].[Na+]", "note": "[Na2SO4, Sodium sulfate]", "values": [{"measurement": "drop in growth rate", "setting": "4KO E. coli strain; 1M salt concentration", "result": "greater than 80%"}, {"measurement": "E. coli Growth Rate (μ)", "setting": "4KO E. coli strain; Na2SO4 added 0.03 mole/L, total salts 0.17 moles/L", "result": 0.79, "unit": "h⁻¹"}, {"measurement": "E. coli Growth Rate (μ)", "setting": "4KO E. coli strain; Na2SO4 added 0.07 mole/L, total salts 0.21 moles/L", "result": 0.79, "unit": "h⁻¹"}, {"measurement": "E. coli Growth Rate (μ)", "setting": "4KO E. coli strain; Na2SO4 added 0.15 mole/L, total salts 0.29 moles/L", "result": 0.79, "unit": "h⁻¹"}, {"measurement": "E. coli Growth Rate (μ)", "setting": "4KO E. coli strain; Na2SO4 added 0.22 mole/L, total salts 0.36 moles/L", "result": 0.74, "unit": "h⁻¹"}, {"measurement": "E. coli Growth Rate (μ)", "setting": "4KO E. coli strain; Na2SO4 added 0.29 mole/L, total salts 0.43 moles/L", "result": 0.69, "unit": "h⁻¹"}, {"measurement": "E. coli Growth Rate (μ)", "setting": "4KO E. coli strain; Na2SO4 added 0.44 mole/L, total salts 0.58 moles/L", "result": 0.60, "unit": "h⁻¹"}, {"measurement": "E. coli Growth Rate (μ)", "setting": "4KO E. coli strain; Na2SO4 added 0.67 mole/L, total salts 0.81 moles/L", "result": 0.55, "unit": "h⁻¹"}, {"measurement": "E. coli Growth Rate (μ)", "setting": "4KO E. coli strain; Na2SO4 added 1.00 mole/L, total salts 1.14 moles/L", "result": 0.14, "unit": "h⁻¹"}, {"measurement": "E. coli Growth Rate (μ)", "setting": "4KO E. coli strain; Na2SO4 added 1.33 mole/L, total salts 1.47 moles/L", "result": "Negligible growth"}, {"measurement": "E. coli Growth Rate (μ)", "setting": "4KO E. coli strain; Na2SO4 added 2.00 mole/L, total salts 2.14 moles/L", "result": "Negligible Growth"}, {"measurement": "loss of growth rate compared to no electrolyte control", "setting": "4KO E. coli strain; about 0.67 M Na2SO4 (total salt level of 0.81 M)", "result": 30, "unit": "%"}]}
{"molecule": "Isobutanol", "values": [{"measurement": "Kp", "setting": "[1]; Na2SO4 added 0.00 moles/L, total salts 0.14 moles/L", "result": 4.80}, {"measurement": "Kp", "setting": "[1]; Na2SO4 added 0.03 moles/L, total salts 0.17 moles/L", "result": 5.03}, {"measurement": "Kp", "setting": "[1]; Na2SO4 added 0.07 moles/L, total salts 0.21 moles/L", "result": 5.25}, {"measurement": "Kp", "setting": "[1]; Na2SO4 added 0.15 moles/L, total salts 0.29 moles/L", "result": 5.78}, {"measurement": "Kp", "setting": "[1]; Na2SO4 added 0.22 moles/L, total salts 0.36 moles/L", "result": 6.37}, {"measurement": "Kp", "setting": "[1]; Na2SO4 added 0.29 moles/L, total salts 0.43 moles/L", "result": 7.12}, {"measurement": "Kp", "setting": "[1]; Na2SO4 added 0.44 moles/L, total salts 0.58 moles/L", "result": 8.34}, {"measurement": "Kp", "setting": "[1]; Na2SO4 added 0.67 moles/L, total salts 0.81 moles/L", "result": 10.50}, {"measurement": "Kp", "setting": "[1]; Na2SO4 added 1.00 moles/L, total salts 1.14 moles/L", "result": 15.95}, {"measurement": "Kp", "setting": "[1]; Na2SO4 added 1.33 moles/L, total salts 1.47 moles/L", "result": 24.68}, {"measurement": "Kp", "setting": "[1]; Na2SO4 added 2.00 moles/L, total salts 2.14 moles/L", "result": 60.99}, {"measurement": "Kp", "setting": "[1]; NaCl added 0.00 moles/L, total salt 0.14 moles/L", "result": 4.87}, {"measurement": "Kp", "setting": "[1]; NaCl added 0.01 moles/L, total salt 0.15 moles/L", "result": 4.87}, {"measurement": "Kp", "setting": "[1]; NaCl added 0.04 moles/L, total salt 0.18 moles/L", "result": 4.89}, {"measurement": "Kp", "setting": "[1]; NaCl added 0.07 moles/L, total salt 0.21 moles/L", "result": 4.95}, {"measurement": "Kp", "setting": "[1]; NaCl added 0.11 moles/L, total salt 0.25 moles/L", "result": 5.00}, {"measurement": "Kp", "setting": "[1]; NaCl added 0.14 moles/L, total salt 0.28 moles/L", "result": 5.00}, {"measurement": "Kp", "setting": "[1]; NaCl added 0.21 moles/L, total salt 0.35 moles/L", "result": 5.22}, {"measurement": "Kp", "setting": "[1]; NaCl added 0.33 moles/L, total salt 0.47 moles/L", "result": 5.04}, {"measurement": "Kp", "setting": "[1]; NaCl added 0.67 moles/L, total salt 0.81 moles/L", "result": 5.91}, {"measurement": "Kp", "setting": "[1]; NaCl added 1.00 moles/L, total salt 1.14 moles/L", "result": 6.88}, {"measurement": "Kp", "setting": "[1]; NaCl added 1.33 moles/L, total salt 1.47 moles/L", "result": 8.06}, {"measurement": "Kp [Conc in OA phase]/[Conc in Aq Phase]", "setting": "[2]; Na2SO4 added 0 moles/L, total salts 0.05 moles/L", "result": 3.1}, {"measurement": "Kp [Conc in OA phase]/[Conc in Aq Phase]", "setting": "[2]; Na2SO4 added 0.28 moles/L, total salts 0.33 moles/L", "result": 4.5}, {"measurement": "Kp [Conc in OA phase]/[Conc in Aq Phase]", "setting": "[2]; Na2SO4 added 0.42 moles/L, total salts 0.47 moles/L", "result": 5.4}]}
{"molecule": "B1", "values": [{"measurement": "activity of the enzyme", "setting": "[3]", "result": 3.5, "unit": "mmol/min/mg protein"}]}
